≈ marks a conversion by molar mass, not a printed value.
Experiments:
Format in all cases: functional
Settings in all cases: time 20-24 hrs
[1] = tested on: Bacillus subtilis; test: Antibacterial activity against Bacillus subtilis CMCC (B) 63501 assessed as inhibition of bacterial growth incubated for 20 to 24 hrs by broth micro dilution method
[2] = tested on: Enterococcus faecium; test: Antibacterial activity against vancomycin resistant Enterococcus faecium ATCC 700221 assessed as inhibition of bacterial growth incubated for 20 to 24 hrs by broth micro dilution method
[3] = tested on: Enterococcus faecium; test: Antibacterial activity against vancomycin-resistant Enterococcus faecium clinical isolate assessed as inhibition of bacterial growth incubated for 20 to 24 hrs by broth micro dilution method
[4] = tested on: Staphylococcus aureus; test: Antibacterial activity against vancomycin-intermediate Staphylococcus aureus Mu50 assessed as inhibition of bacterial growth incubated for 20 to 24 hrs by broth micro dilution method
[5] = tested on: Pseudomonas aeruginosa; test: Antibacterial activity against […] Pseudomonas aeruginosa ATCC 27853 assessed as inhibition of bacterial growth incubated for 20 to 24 hrs by broth micro dilution method
[6] = tested on: Staphylococcus aureus; test: Antibacterial activity against methicillin-resistant Staphylococcus aureus ATCC 33592 assessed as inhibition of bacterial growth incubated for 20 to 24 hrs by broth micro dilution method
[7] = tested on: Enterococcus faecium; test: Antibacterial activity against Enterococcus faecium ATCC 49624 assessed as inhibition of bacterial growth incubated for 20 to 24 hrs by broth micro dilution method
[8] = tested on: Escherichia coli; test: Antibacterial activity against Escherichia coli ATCC 8739 assessed as inhibition of bacterial growth incubated for 20 to 24 hrs by broth micro dilution method
[9] = tested on: Staphylococcus aureus; test: Antibacterial activity against Staphylococcus aureus ATCC 29213 assessed as inhibition of bacterial growth incubated for 20 to 24 hrs by broth micro dilution method
[10] = tested on: Staphylococcus aureus; test: Antibacterial activity against methicillin-resistant Staphylococcus aureus ATCC 43300 assessed as inhibition of bacterial growth incubated for 20 to 24 hrs by broth micro dilution method
[11] = tested on: Klebsiella pneumoniae; test: Antibacterial activity against NDM-1 expressing Klebsiella pneumoniae ATCC BAA 2470 assessed as inhibition of bacterial growth incubated for 20 to 24 hrs by broth micro dilution method
[12] = tested on: Escherichia coli; test: Antibacterial activity against Escherichia coli ATCC 25922 assessed as inhibition of bacterial growth incubated for 20 to 24 hrs by broth micro dilution method
[13] = tested on: Enterococcus faecalis; test: Antibacterial activity against Enterococcus faecalis ATCC 29212 assessed as inhibition of bacterial growth incubated for 20 to 24 hrs by broth micro dilution method
[14] = tested on: Staphylococcus aureus; test: Antibacterial activity against methicillin-resistant Staphylococcus aureus ATCC BAA-1720 assessed as inhibition of bacterial growth incubated for 20 to 24 hrs by broth micro dilution method
[15] = tested on: Acinetobacter baumannii; test: Antibacterial activity against multi-drug resistant Acinetobacter baumannii ATCC 19606 assessed as inhibition of bacterial growth incubated for 20 to 24 hrs by broth micro dilution method
[16] = tested on: Escherichia coli; test: Antibacterial activity against NDM-1 expressing Escherichia coli ATCC BAA2469 assessed as inhibition of bacterial growth incubated for 20 to 24 hrs by broth micro dilution method
[17] = tested on: Staphylococcus epidermidis; test: Antibacterial activity against Staphylococcus epidermidis ATCC 12228 assessed as inhibition of bacterial growth incubated for 20 to 24 hrs by broth micro dilution method

Structure (SMILES) | MIC [1] | MIC [2] | MIC [3] | MIC [4] | MIC [5] | MIC [6] | MIC [7] | MIC [8] | MIC [9] | MIC [10] | MIC [11] | MIC [12] | MIC [13] | MIC [14] | MIC [15] | MIC [16] | MIC [17]
CN(C)c1ccc(/C=C/c2cc(N3CCOCC3)[n+](C)c3ccccc23)cc1.[I-] | 16 µg/mL | 32 µg/mL | > 64 µg/mL | 32 µg/mL | > 64 µg/mL | 64 µg/mL | 8 µg/mL | > 64 µg/mL | 32 µg/mL | > 64 µg/mL | > 64 µg/mL | > 64 µg/mL | > 64 µg/mL | > 64 µg/mL | > 64 µg/mL | > 64 µg/mL | 16 µg/mL
CN(C)c1ccc(/C=C/c2ccc3ccccc3[n+]2C)cc1.[I-] | 64 µg/mL | – | – | – | – | – | 8 µg/mL | – | 16 µg/mL | – | – | – | > 64 µg/mL | – | – | – | 16 µg/mL
CN(C)c1ccc(/C=C/c2cc[n+](C)c3ccccc23)cc1.[I-] | 64 µg/mL | – | – | – | – | – | 16 µg/mL | – | 16 µg/mL | – | – | – | > 64 µg/mL | – | – | – | 16 µg/mL
CN(C)c1ccc(/C=C/c2cc(NCCCO)[n+](C)c3ccccc23)cc1.[I-] | 32 µg/mL | 64 µg/mL | 64 µg/mL | 64 µg/mL | > 64 µg/mL | 64 µg/mL | > 64 µg/mL | > 64 µg/mL | > 64 µg/mL | > 64 µg/mL | > 64 µg/mL | > 64 µg/mL | > 64 µg/mL | 64 µg/mL | > 64 µg/mL | > 64 µg/mL | 64 µg/mL
CN(C)c1ccc(/C=C/c2cc(N3CCCCC3)[n+](C)c3ccccc23)cc1.[I-] | 4 µg/mL | 2 µg/mL | 8 µg/mL | 4 µg/mL | > 64 µg/mL | 8 µg/mL | 8 µg/mL | 32 µg/mL | 2 µg/mL | 4 µg/mL | > 64 µg/mL | 16 µg/mL | 16 µg/mL | 4 µg/mL | > 64 µg/mL | 64 µg/mL | 1 µg/mL
CN(C)c1ccc(/C=C/c2cc(N3CCCC3)c3ccccc3[n+]2C)cc1.[I-] | 4 µg/mL | 2 µg/mL | 4 µg/mL | 1 µg/mL | > 64 µg/mL | 1 µg/mL | 4 µg/mL | 16 µg/mL | 1 µg/mL | 2 µg/mL | > 64 µg/mL | 4 µg/mL | 2 µg/mL | 8 µg/mL | 32 µg/mL | 64 µg/mL | 1 µg/mL
CN[C@H](CC(C)C)C(=O)N[C@H]1C(=O)N[C@@H](CC(N)=O)C(=O)N[C@H]2C(=O)N[C@H]3C(=O)N[C@H](C(=O)N[C@H](C(=O)O)c4cc(O)cc(O)c4-c4cc3ccc4O)[C@H](O)c3ccc(c(Cl)c3)Oc3cc2cc(c3O[C@@H]2O[C@H](CO)[C@@H](O)[C@H](O)[C@H]2O[C@H]2C[C@](C)(N)[C@H](O)[C@H](C)O2)Oc2ccc(cc2Cl)[C@H]1O [VANCOMYCIN] | 0.25 µg/mL (≈ 0.173 µM) | 1020 µg/mL (≈ 707 µM) | > 64 µg/mL | 32 µg/mL (≈ 22.1 µM) | > 64 µg/mL | – | – | > 64 µg/mL | – | – | > 64 µg/mL | > 64 µg/mL | 2 µg/mL (≈ 1.38 µM) | – | > 64 µg/mL | > 64 µg/mL | > 64 µg/mL
CC1(C)S[C@@H]2[C@H](NC(=O)[C@H](N)c3ccccc3)C(=O)N2[C@H]1C(=O)O [AMPICILLIN] | 4 µg/mL (≈ 11.4 µM) | 0.25 µg/mL (≈ 0.715 µM) | > 64 µg/mL | 0.125 µg/mL (≈ 0.358 µM) | > 64 µg/mL | 64 µg/mL (≈ 183 µM) | 2 µg/mL (≈ 5.72 µM) | 16 µg/mL (≈ 45.8 µM) | > 64 µg/mL | > 64 µg/mL | > 64 µg/mL | – | 1 µg/mL (≈ 2.86 µM) | > 64 µg/mL | > 64 µg/mL | > 64 µg/mL | > 64 µg/mL
O=C(O)c1cn(C2CC2)c2cc(N3CCNCC3)c(F)cc2c1=O [CIPROFLOXACIN] | 0.25 µg/mL (≈ 0.754 µM) | > 64 µg/mL | – | 1 µg/mL (≈ 3.02 µM) | 1 µg/mL (≈ 3.02 µM) | – | 32 µg/mL (≈ 96.6 µM) | < 0.125 µg/mL | 0.25 µg/mL (≈ 0.754 µM) | 2 µg/mL (≈ 6.04 µM) | > 64 µg/mL | – | 4 µg/mL (≈ 12.1 µM) | > 64 µg/mL | – | > 64 µg/mL | 1 µg/mL (≈ 3.02 µM)
